From patent US20170100396A1 (priority 2015, published 2017) come the findings set out here.

The test system of this assay is influenza A virus (IAV) A/Aichi/2/68 (H3N2). In words: microbe, parasite or virus in culture. In kind it is cell-based, influenza A virus in MDCK cells. To be noted: for IC50: H3N2, MDCK, 48 h, read-out: CPE IC50.
The mark [1] stands for this setting: Influenza A virus, H3N2, read-out: % CPE reduction.

With `O=C(N[C@@H](C(=O)N1CCC(C(=O)O)C1)C1CCCCC1)c1c[nH]c2ncc(C3CC3)nc12` (some centres unmarked), the inhibition at 5 µM under setting [1] came to 11.6%.

Consider `COc1ccc(C(C)(C)CNC(=O)c2c[nH]c3ncc(C4CC4)nc23)cc1OC`, for which, under setting [1], the inhibition at 2.5 µM came to 15.8%.

Take `CCOC(=O)C1(c2cccc(-c3cnc4[nH]cc(C(=O)NC(C)C)c4n3)c2)CC1`: under setting [1], the inhibition at 5 µM is -0.5%.

For the compound `CC(NC(=O)[C@H](NC(=O)c1c[nH]c2ncc(C3CC3)nc12)C1CC1)c1ccccc1` (some centres unmarked), the inhibition at 5 µM under setting [1] worked out at 2.7%. For the compound `COC(=O)[C@H]1CC[C@H](NC(=O)[C@H](NC(=O)c2c[nH]c3ncc(C4CC4)nc23)C2CCCCC2)CC1`, the “CPE (result in words)” value was “Active”. As usually defined, the IC50 is the concentration at which inhibition is half-maximal. Take `O=C(N[C@H](C(=O)N1CCCC1)C1CC1)c1c[nH]c2ncc(C3CC3)nc12`: the IC50 (Influenza A virus) is above 25 µM. Same read-out and setting: next, `CC(C)C[C@@H](NC(=O)c1c[nH]c2ncc(C3CC3)nc12)C(=O)N1CCCC1`: above 100 µM; `CC(C)C[C@@H](NC(=O)c1c[nH]c2ncc(C3CC3)nc12)C(=O)N1CC2(CN(C(=O)OC(C)(C)C)C2)C1`: above 100 µM. Regarding `O=C(N[C@@H](C(=O)N1CC2(COC2)C1)C1CC1)c1c[nH]c2ncc(C3CC3)nc12`, the IC50 (Influenza A virus) was above 100 µM. In the case of `O=C(N[C@@H](C(=O)N1CCN(C2CCOCC2)CC1)C1CC1)c1c[nH]c2ncc(C3CC3)nc12`, under “Influenza A virus”, the IC50 was above 100 µM. As to `O=C(N[C@@H](C(=O)N1CCC2(CCN(Cc3ccccc3)C2=O)C1)C1CC1)c1c[nH]c2ncc(C3CC3)nc12` (some centres unmarked), the 50% inhibitory concentration (IC50) (Influenza A virus) was found to be 27 µM. For the compound `O=C(N[C@@H](C(=O)NCC(=O)N1CCS(=O)(=O)CC1)C1CC1)c1c[nH]c2ncc(C3CC3)nc12`, the IC50 (Influenza A virus) was above 100 µM. On to `CC(C)C[C@@H](NC(=O)c1c[nH]c2ncc(C3CC3)nc12)C(=O)NCCC(=O)NC1CCCC1`, for which the IC50 (Influenza A virus) is above 100 µM.

Turning to `O=C(N[C@@H](C(=O)NCC(=O)N1CCCC1)C1CC1)c1c[nH]c2ncc(C3CC3)nc12`, for the setting “Influenza A virus”, the IC50 was above 100 µM. On the same count and under the same terms, under `CC(C)C[C@@H](NC(=O)c1c[nH]c2ncc(C3CC3)nc12)C(=O)NCCC(=O)Nc1ccccc1` stands above 100 µM. Same read-out and setting: under `Cc1ccc(CNC(=O)c2c[nH]c3ncc(C(C)C)nc23)nn1` stands 139 µM; under `O=C(N[C@@H](C(=O)N1CC2(CCC2)C1)C1CC1)c1c[nH]c2ncc(C3CC3)nc12`, above 100 µM. Same read-out and setting: next, `O=C(N[C@@H](C(=O)NCCc1ccccc1)C1CC1)c1c[nH]c2ncc(C3CC3)nc12`: above 100 µM; `O=C(N[C@@H](C(=O)N1CCN(Cc2ccccc2)CC1)C1CC1)c1c[nH]c2ncc(C3CC3)nc12`: 41.9 µM; `O=C(N[C@@H](C(=O)NCCC(=O)N1CCCC1)C1CC1)c1c[nH]c2ncc(C3CC3)nc12`: above 100 µM. As to `CC(C)c1cnc2[nH]cc(C(=O)NCC(F)(F)F)c2n1`, the IC50 (Influenza A virus) was above 50 µM.

As to `O=C(N[C@@H](C(=O)NCc1ccc(Cl)cc1)C1CC1)c1c[nH]c2ncc(C3CC3)nc12`, the IC50 (Influenza A virus) came to 2.99 µM. On the same count and under the same terms, under `CC(C)c1cnc2[nH]cc(C(=O)NC3CCCCC3O)c2n1` (centres unmarked) stands 11.3 µM; under `CC(C)C[C@@H](NC(=O)c1c[nH]c2ncc(C3CC3)nc12)C(=O)NCC(=O)NC1CCCC1`, above 100 µM. In the case of `O=C(N[C@@H](C(=O)N1CCc2ccccc2C1)C1CC1)c1c[nH]c2ncc(C3CC3)nc12`, the IC50 (Influenza A virus) is above 100 µM.

Turning to `O=C(N[C@@H](C(=O)NCC(=O)N1CCOCC1)C1CC1)c1c[nH]c2ncc(C3CC3)nc12`, the IC50 (Influenza A virus) is above 100 µM. Still for that read-out and setting: under `CC(C)c1cnc2[nH]cc(C(=O)NC3CCOC3(C)C)c2n1` (centres unmarked) stands above 100 µM. Still for that read-out and setting: next, `COC(=O)C1CC2(CC(NC(=O)[C@@H](CC(C)C)NC(=O)c3c[nH]c4ncc(C5CC5)nc34)C2)C1` (some centres unmarked): above 100 µM. Still for that read-out and setting: next, `O=C(N[C@@H](C(=O)N1CCCC1)C1CC1)c1c[nH]c2ncc(C3CC3)nc12`: above 25 µM.

Turning to `CC(C)(NC(=O)c1c[nH]c2ncc(C3CC3)nc12)C(=O)N1CCCC1`, the IC50 (Influenza A virus) was above 100 µM. Take `O=C(N[C@@H](C(=O)Nc1ccccc1)C1CC1)c1c[nH]c2ncc(C3CC3)nc12`: the IC50 (Influenza A virus) is above 100 µM. Still for that read-out and setting: under `O=C(N[C@@H](C(=O)N1CCC[C@@H](C(=O)N2CCCC2)C1)C1CC1)c1c[nH]c2ncc(C3CC3)nc12` stands above 100 µM; under `COc1ccc(NC(=O)[C@H](NC(=O)c2c[nH]c3ncc(C4CC4)nc23)C2CC2)cc1`, above 100 µM. Consider `O=C(N[C@@H](C(=O)NCc1ccccc1)C1CC1)c1c[nH]c2ncc(C3CC3)nc12`, for which, for the setting “Influenza A virus”, the IC50 turned out to be 18.2 µM. Still for that read-out and setting: under `CC(C)c1cnc2[nH]cc(C(=O)NCCCN3CCOCC3)c2n1` stands above 100 µM.

In the case of `CC(C)c1cnc2[nH]cc(C(=O)NC3(C#N)CC3)c2n1`, the IC50 (Influenza A virus) was determined as 34.7 µM. On the same count and under the same terms, under `O=C(N[C@@H](C(=O)N1CCCCC1)C1CC1)c1c[nH]c2ncc(C3CC3)nc12` stands above 100 µM; under `O=C(N[C@@H](C(=O)N1CCC[C@@H](C(=O)N2CCCCC2)C1)C1CC1)c1c[nH]c2ncc(C3CC3)nc12`, above 100 µM. Take `COc1ccc(CNC(=O)[C@H](NC(=O)c2c[nH]c3ncc(C4CC4)nc23)C2CC2)cc1`: for the setting “Influenza A virus”, the IC50 amounted to 10.3 µM. On to `O=C(N[C@@H](C(=O)NCCC(=O)N1CCOCC1)C1CC1)c1c[nH]c2ncc(C3CC3)nc12`, for which the IC50 (Influenza A virus) is above 100 µM. `CC(C)C[C@@H](NC(=O)c1c[nH]c2ncc(C3CC3)nc12)C(=O)N1CC2(CNC2)C1`: for the setting “Influenza A virus”, the IC50 is above 100 µM.

In the case of `CC(C)C[C@@H](NC(=O)c1c[nH]c2ncc(C3CC3)nc12)C(=O)NCC(=O)NCc1ccccn1`, for the setting “Influenza A virus”, the IC50 is above 100 µM.

For `O=C(N[C@@H](C(=O)N1CCC[C@H](C(=O)N2CCOCC2)C1)C1CC1)c1c[nH]c2ncc(C3CC3)nc12`, the IC50 (Influenza A virus) was above 100 µM.

As for `O=C(N[C@@H](C(=O)NCc1ccncc1)C1CC1)c1c[nH]c2ncc(C3CC3)nc12`, the IC50 (Influenza A virus) was 40.4 µM. Same read-out and setting: under `O=C(N[C@@H](C(=O)NC1CCCc2ccccc21)C1CC1)c1c[nH]c2ncc(C3CC3)nc12` (some centres unmarked) stands above 100 µM; under `O=C(N[C@@H](C(=O)NCc1cccc(F)c1)C1CC1)c1c[nH]c2ncc(C3CC3)nc12`, 9.2 µM. For `O=C(N[C@@H](C(=O)N1CC(F)(F)C1)C1CC1)c1c[nH]c2ncc(C3CC3)nc12`, where the note is “Influenza A virus”, the IC50 was above 100 µM.

As for `O=C(N[C@@H](C(=O)N1CCOCC1)C1CC1)c1c[nH]c2ncc(C3CC3)nc12`, the IC50 (Influenza A virus) was above 100 µM. The same measure, in the same setting: next, `O=C(N[C@@H](C(=O)N1CCC[C@@H](C(=O)N2CCOCC2)C1)C1CC1)c1c[nH]c2ncc(C3CC3)nc12`: above 100 µM. Still for that read-out and setting: under `CC(C)C[C@@H](NC(=O)c1c[nH]c2ncc(C3CC3)nc12)C(=O)NCC(=O)NCc1ccccc1` stands above 100 µM; under `O=C(N[C@@H](C(=O)N1CCC[C@H](C(=O)N2CCCC2)C1)C1CC1)c1c[nH]c2ncc(C3CC3)nc12`, above 100 µM; under `CN1CCN(C(=O)CCNC(=O)[C@H](NC(=O)c2c[nH]c3ncc(C4CC4)nc23)C2CC2)CC1`, above 100 µM. The same measure, in the same setting: under `O=C(N[C@@H](C(=O)NCCC(=O)N1CCCCC1)C1CC1)c1c[nH]c2ncc(C3CC3)nc12` stands above 100 µM. For the compound `CCCNC(=O)c1c[nH]c2ncc(C(C)C)nc12`, the IC50 (Influenza A virus) stood at 18.1 µM. Same read-out and setting: under `O=C(N[C@@H](C(=O)NCCc1ccc(Cl)cc1)C1CC1)c1c[nH]c2ncc(C3CC3)nc12` stands above 100 µM.

On to `O=C(N[C@@H](C(=O)NCc1ccccc1F)C1CC1)c1c[nH]c2ncc(C3CC3)nc12`, for which the concentration for half-maximal inhibition (IC50) (Influenza A virus) stood at 14.6 µM. For the compound `CC(C)C[C@@H](NC(=O)c1c[nH]c2ncc(C3CC3)nc12)C(=O)NCCC(=O)NCc1ccccn1`, under “Influenza A virus”, the IC50 is above 100 µM.

Regarding `N#CC(NC(=O)[C@H](NC(=O)c1c[nH]c2ncc(C3CC3)nc12)C1CC1)c1ccc(C(F)(F)F)cc1` (some centres unmarked), the IC50 (Influenza A virus) was above 10 µM. Same read-out and setting: next, `O=C(N[C@@H](C(=O)NCCC(=O)N1CCS(=O)(=O)CC1)C1CC1)c1c[nH]c2ncc(C3CC3)nc12`: above 100 µM. For `CC(C)C[C@@H](NC(=O)c1c[nH]c2ncc(C3CC3)nc12)C(=O)NCCC(=O)NCc1ccccc1`, for the setting “Influenza A virus”, the IC50 was above 100 µM. Same read-out and setting: under `O=C(N[C@@H](C(=O)N1CCC[C@H](C(=O)N2CCCCC2)C1)C1CC1)c1c[nH]c2ncc(C3CC3)nc12` stands 33.1 µM; under `O=C(NCC(=O)N1CCCC1)c1c[nH]c2ncc(Br)nc12`, above 100 µM.

In the case of `CC1(CNC(=O)c2c[nH]c3ncc(-c4ccccc4Cl)nc23)CCC(=O)N1` (centres unmarked), the IC50 (Influenza A virus) was above 100 µM.

With `COc1ccc(CCNC(=O)[C@H](NC(=O)c2c[nH]c3ncc(C4CC4)nc23)C2CC2)cc1`, the IC50 (Influenza A virus) was above 100 µM. As for `CC(C)c1cnc2[nH]cc(C(=O)NC(C)C(C)(C)O)c2n1` (centres unmarked), the IC50 (Influenza A virus) amounted to 12.2 µM. The same measure, in the same setting: under `COCCN(CCOC)C(=O)c1c[nH]c2ncc(C(C)C)nc12` stands above 100 µM. The same measure, in the same setting: next, `CCN(C)C(=O)c1c[nH]c2ncc(C(C)C)nc12`: above 100 µM; `CC(C)c1cnc2[nH]cc(C(=O)N3CCC(F)(F)CC3)c2n1`: above 100 µM; `O=C(N[C@@H](C(=O)NCc1ccccc1Cl)C1CC1)c1c[nH]c2ncc(C3CC3)nc12`: 8.8 µM. As to `O=C(N[C@@H](C(=O)NCc1ccc(C(F)(F)F)cc1)C1CC1)c1c[nH]c2ncc(C3CC3)nc12`, under “Influenza A virus”, the IC50 was 4.6 µM.

In the case of `COc1ccc(C(C#N)NC(=O)[C@H](NC(=O)c2c[nH]c3ncc(C4CC4)nc23)C2CC2)cc1` (some centres unmarked), the IC50 (Influenza A virus) turned out to be 4.9 µM. Same read-out and setting: under `O=C(N[C@@H](C(=O)NCc1ccc(Cl)c(Cl)c1)C1CC1)c1c[nH]c2ncc(C3CC3)nc12` stands 4.7 µM; under `O=C(N[C@@H](C(=O)NCc1ccc(OC(F)(F)F)cc1)C1CC1)c1c[nH]c2ncc(C3CC3)nc12`, 5.4 µM; under `O=C(N[C@@H](C(=O)NCc1ccc(F)cc1)C1CC1)c1c[nH]c2ncc(C3CC3)nc12`, 16.1 µM. In the case of `O=C(N[C@@H](C(=O)NCc1ccc(F)c(F)c1)C1CC1)c1c[nH]c2ncc(C3CC3)nc12`, the IC50 (Influenza A virus) came to 14.8 µM. `O=C(N[C@@H](C(=O)NCc1cccc(Cl)c1)C1CC1)c1c[nH]c2ncc(C3CC3)nc12`: the IC50 (Influenza A virus) came out at 7.3 µM. Same read-out and setting: under `CS(=O)(=O)CCNC(=O)c1c[nH]c2ncc(-c3ccccc3Cl)nc12` stands above 100 µM. For the compound `O=C(N[C@@H](C(=O)NCc1cc(Cl)cc(Cl)c1)C1CC1)c1c[nH]c2ncc(C3CC3)nc12`, the IC50 (Influenza A virus) is above 25 µM. The same measure, in the same setting: next, `CC(C)NC(=O)c1c[nH]c2ncc(-c3ccccc3C(F)(F)F)nc12`: above 100 µM; `CC(C)C[C@@H](NC(=O)c1c[nH]c2ncc(C3CC3)nc12)C(=O)NC1CCCc2ccccc21` (some centres unmarked): above 100 µM.
